Tested on: Thy-1 nephritis model rat
Assay: Renal protective effect on Thy-1 nephritis model rat
Format: in vivo
Details: 50 mg/kg twice daily by sonde, 5 days
Experimental: 1.2 mg/kg of OX-7, anti Thy-1 antibody, was administered to wistar rat (male, body weight 150 g, 6 weeks aged) in caudal vein to prepare typical glomerulonephritis model with mesangial nephritis. After the administration of anti Thy-1 antibody, test compound (TM-2002, 50 mg/kg body weight, twice a daily) was suspended in 0.5% carboxymethylcellulose, was coercively administered 5 days continuously using sonde, on sixth day sampled, kidney was obtained, and analysed pathologically (count the number of glomerular cells). In particular, cells were stained by PAS according to conventional method, the stained image was captured by 3CCD camera (Olympus), and then analyzed using softwares, Image Graver PCI (FUJI shashin film) and Mac Aspect (Mitani kabushiki kaisha). Also, biochemical analysis of blood and urine was carried out (contract clinical analysis organization: SRL).

Cc1ncc2c(c1O)C(c1c(C)nn(-c3ccccc3)c1O)OC2 (stereo not drawn) [compound 68, 1-(5-hydroxy-3-methyl-1-phenyl-1H-pyrazol-4-yl)-6-methyl-1,3-dihydro-furo[3,4-c]pyridin-7-ol]
BUN value (sampled on sixth day): improved
urinary protein (sampled on sixth day): improved
number of glomerular cells (p<0.0001): significantly suppressed

— patent US7645882B2, “Inhibitor of protein modification products formation” (priority 2003, dated 2010)
